Results published in PubChem BioAssay AID1745844 (Carcinogenic Potency Database (CPDB), 2022).
“And” between values parts separate entries of the source, which are not always exact repeats. Identical values can stand only once. The source made the active and inactive calls. The rule behind the calls is not given here.

Test system: rodent lifetime carcinogenesis bioassay, tumor incidence TD50
Experiment: chronic cancer bioassays in animals – CPDB, compiled studies (AID 1745844)

O=c1c(O)c(-c2ccc(O)c(O)c2)oc2cc(O)cc(O)c12 was tested, and the carcinogen call (hamster, strain Syrian Golden, females, in feed, site: forestomach, lesion: papilloma, dosed 50 weeks, study length 100 weeks) was “negative (inactive)”, the TD50 (hamster, strain Syrian Golden, females, in feed, site: forestomach, lesion: papilloma, dosed 101 weeks, study length 101 weeks) was 18900 mg/kg/day (inactive) and the carcinogen call (hamster, strain Syrian Golden, females, in feed, site: forestomach, lesion: papilloma, dosed 104 weeks, study length 104 weeks) was “negative (inactive)”. The TD50 (hamster, strain Syrian Golden, females, in feed, site: ileum, lesion: adenocarcinoma, dosed 104 weeks, study length 104 weeks) was 140000 mg/kg/day (inactive), the TD50 (hamster, strain Syrian Golden, females, in feed, site: uterus, lesion: leiomyoma, dosed 101 weeks, study length 101 weeks) was 39200 mg/kg/day (inactive) and the carcinogen call (hamster, strain Syrian Golden, males, in feed, site: adrenal gland, lesion: cortical adenoma, dosed 101 weeks, study length 101 weeks) was “negative (inactive)”. For the same compound, the carcinogen call (hamster, strain Syrian Golden, males, in feed, site: adrenal gland, lesion: cortical adenoma, dosed 104 weeks, study length 104 weeks) was “negative (inactive)”, the TD50 (hamster, strain Syrian Golden, males, in feed, site: forestomach, lesion: papilloma, dosed 50 weeks, study length 100 weeks) was 1440 mg/kg/day (inactive) and the carcinogen call (hamster, strain Syrian Golden, males, in feed, site: forestomach, lesion: papilloma, dosed 101 weeks, study length 101 weeks) was “negative (inactive)”. For the same compound, the TD50 (hamster, strain Syrian Golden, males, in feed, site: forestomach, lesion: papilloma, dosed 104 weeks, study length 104 weeks) was 56700 mg/kg/day (inactive), the carcinogen call (mouse, strain DDY, females, in feed, site: liver, lesion: one or several types, types not named, dosed 120 weeks, study length 120 weeks) was “negative (inactive)” and the TD50 (mouse, strain DDY, females, in feed, site: lung, lesion: several types, types named in the paper, dosed 120 weeks, study length 120 weeks) was 4240 mg/kg/day (inactive). The TD50 (mouse, strain DDY, males, in feed, site: heart, lesion: spindle-cell sarcoma, dosed 115 weeks, study length 115 weeks) was 73400 mg/kg/day (inactive), the TD50 (mouse, strain DDY, males, in feed, site: liver, lesion: several types, types named in the paper, dosed 115 weeks, study length 115 weeks) was 15100 mg/kg/day (inactive) and the TD50 (mouse, strain DDY, males, in feed, site: lung, lesion: several types, types named in the paper, dosed 115 weeks, study length 115 weeks) was 5460 mg/kg/day (inactive). For the same compound, the carcinogen call (rat, strain ACI, females, in feed, site: adrenal gland, lesion: cortical adenoma, dosed 77 weeks, study length 77 weeks) was “negative (inactive)”, the TD50 (rat, strain ACI, females, in feed, site: adrenal gland, lesion: cortical adenoma, dosed 121 weeks, study length 121 weeks) was 226000 mg/kg/day (inactive) and the carcinogen call (rat, strain ACI, females, in feed, site: pituitary gland, lesion: adenoma, dosed 77 weeks, study length 77 weeks) was “negative (inactive)”. For the same compound, the TD50 (rat, strain ACI, females, in feed, site: pituitary gland, lesion: adenoma, dosed 121 weeks, study length 121 weeks) was 461000 mg/kg/day (inactive), the TD50 (rat, strain ACI, females, in feed, site: thigh, lesion: sarcoma, dosed 121 weeks, study length 121 weeks) was 90400 mg/kg/day (inactive) and the TD50 (rat, strain ACI, males, in feed, site: adrenal gland, lesion: pheochromocytoma, dosed 77 weeks, study length 77 weeks) was 7130 mg/kg/day (inactive). The TD50 (rat, strain ACI, males, in feed, site: cecum, lesion: adenocarcinoma, dosed 121 weeks, study length 121 weeks) was 35200 mg/kg/day (inactive), the TD50 (rat, strain ACI, males, in feed, site: cecum, lesion: adenoma, dosed 77 weeks, study length 77 weeks) was 7130 mg/kg/day (inactive) and the TD50 (rat, strain ACI, males, in feed, site: cecum, lesion: adenoma, dosed 121 weeks, study length 121 weeks) was 72300 mg/kg/day (inactive). The TD50 (rat, strain ACI, males, in feed, site: pancreas, lesion: exocrine adenoma, dosed 121 weeks, study length 121 weeks) was 72300 mg/kg/day (inactive), the TD50 (rat, strain ACI, males, in feed, site: testis, lesion: interstitial-cell tumor, dosed 77 weeks, study length 77 weeks) was 2290 mg/kg/day (inactive) and the TD50 (rat, strain F344/DuCrj, females, in feed, site: all sites, lesion: lymphoma and leukemia, combined, dosed 104 weeks, study length 112 weeks) was 7860 mg/kg/day (inactive). The carcinogen call (rat, strain F344/DuCrj, females, in feed, site: liver, lesion: hyperplastic nodule, dosed 104 weeks, study length 112 weeks) was “negative (inactive)”, the TD50 (rat, strain F344/DuCrj, females, in feed, site: uterus, lesion: endometrial stromal polyp, dosed 104 weeks, study length 112 weeks) was 19300 mg/kg/day (inactive) and the TD50 (rat, strain F344/DuCrj, males, in feed, site: all sites, lesion: lymphoma and leukemia, combined, dosed 104 weeks, study length 112 weeks) was 1160 mg/kg/day (inactive). For the same compound, the TD50 (rat, strain F344/DuCrj, males, in feed, site: liver, lesion: hyperplastic nodule, dosed 104 weeks, study length 112 weeks) was 66800 mg/kg/day (inactive), the TD50 (rat, strain Fischer 344, females, in feed, site: adrenal gland, lesion: cortical adenoma, dosed 77 weeks, study length 77 weeks) was 118 mg/kg/day (inactive) and the carcinogen call (rat, strain Fischer 344, females, in feed, site: any site (literature study), lesion: several types, types named in the paper, dosed 64 weeks, study length 64 weeks) was “negative (inactive)”. For the same compound, the TD50 (rat, strain Fischer 344, females, in feed, site: liver, lesion: hepatocellular adenoma + hepatocellular carcinoma + neoplastic nodule, dosed 103 weeks, study length 103 weeks) was 75700 mg/kg/day, the TD50 (rat, strain Fischer 344, females, in feed, site: tongue, lesion: squamous-cell carcinoma, dosed 103 weeks, study length 103 weeks) was 36500 mg/kg/day (inactive) and the carcinogen call (rat, strain Fischer 344, males, in feed, site: any site (literature study), lesion: several types, types named in the paper, dosed 64 weeks, study length 64 weeks) was “negative (inactive)”. For the same compound, the carcinogen call (rat, strain Fischer 344, males, in feed, site: any site (literature study), lesion: several types, types named in the paper, dosed 77 weeks, study length 77 weeks) was “negative (inactive)”, the TD50 (rat, strain Fischer 344, males, in feed, site: kidney, lesion: tubule adenoma + tubular-cell adenocarcinoma, dosed 103 weeks, study length 103 weeks) was 8990 mg/kg/day and 5250 mg/kg/day and the TD50 (rat, strain Fischer 344, males, in feed, site: kidney, lesion: tubule adenoma, dosed 103 weeks, study length 103 weeks) was 12500 mg/kg/day and 6030 mg/kg/day. For the same compound, the TD50 (rat, strain Norwegian albino, females, in feed, site: ileum, lesion: adenocarcinoma, dosed 58 weeks, study length 58 weeks) was 15.4 mg/kg/day, the TD50 (rat, strain Norwegian albino, females, in feed, site: ileum, lesion: several types, types named in the paper, dosed 58 weeks, study length 58 weeks) was 5.12 mg/kg/day and the TD50 (rat, strain Norwegian albino, females, in feed, site: urinary bladder, lesion: several types, types named in the paper, dosed 58 weeks, study length 58 weeks) was 51.3 mg/kg/day. For the same compound, the carcinogen call (rat, strain Norwegian albino, males, in feed, site: ileum, lesion: several types, types named in the paper, dosed 58 weeks, study length 58 weeks) was “positive” and the TD50 (rat, strain Norwegian albino, males, in feed, site: urinary bladder, lesion: transitional-cell carcinoma, dosed 58 weeks, study length 58 weeks) was 21 mg/kg/day.

In the case of CCOc1nc2cccc(C(=O)OC(C)OC(=O)OC3CCCCC3)c2n1Cc1ccc(-c2ccccc2-c2nn[nH]n2)cc1 (stereo unspecified), the TD50 (rat, strain Fischer 344/Jcl, females, in feed, site: any site (literature study), lesion: several types, types named in the paper, dosed 104 weeks, study length 104 weeks) is reported as 11200 mg/kg/day (inactive), the carcinogen call (rat, strain Fischer 344/Jcl, females, in feed, site: liver, lesion: hepatocellular adenoma, dosed 104 weeks, study length 104 weeks) is reported as “negative (inactive)” and the carcinogen call (rat, strain Fischer 344/Jcl, males, in feed, site: any site (literature study), lesion: several types, types named in the paper, dosed 104 weeks, study length 104 weeks) is reported as “negative (inactive)”. The carcinogen call (rat, strain Fischer 344/Jcl, males, in feed, site: liver, lesion: hepatocellular adenoma, dosed 104 weeks, study length 104 weeks) was “negative (inactive)”.

O[C@@H]([C@H](O)[C@H](O)CBr)[C@H](O)CBr showed a TD50 (mouse, strain Swiss, females, i.p., site: adrenal gland, lesion: cortical adenoma, dosed 26 weeks, study length 78 weeks) of 136 mg/kg/day, a TD50 (mouse, strain Swiss, females, i.p., site: all sites, lesion: lymphatic leukemia, dosed 26 weeks, study length 78 weeks) of 89.8 mg/kg/day and a TD50 (mouse, strain Swiss, females, i.p., site: all sites, lesion: lymphosarcoma, dosed 26 weeks, study length 78 weeks) of 38.4 mg/kg/day. For the same compound, the TD50 (mouse, strain Swiss, females, i.p., site: any site (literature study), lesion: benign tumor, dosed 26 weeks, study length 78 weeks) was 130 mg/kg/day, the TD50 (mouse, strain Swiss, females, i.p., site: any site (literature study), lesion: malignant tumor, dosed 26 weeks, study length 78 weeks) was 11.2 mg/kg/day and the TD50 (mouse, strain Swiss, females, i.p., site: any site (literature study), lesion: several types, types named in the paper, dosed 26 weeks, study length 78 weeks) was 7.67 mg/kg/day. It also gave a TD50 (mouse, strain Swiss, females, i.p., site: lung, lesion: several types, types named in the paper, dosed 26 weeks, study length 78 weeks) of 21.4 mg/kg/day, a TD50 (mouse, strain Swiss, females, i.p., site: subcutaneous tissue, lesion: carcinoma, dosed 26 weeks, study length 78 weeks) of 66 mg/kg/day and a TD50 (mouse, strain Swiss, males, i.p., site: any site (literature study), lesion: benign tumor, dosed 26 weeks, study length 78 weeks) of 92.8 mg/kg/day. The TD50 (mouse, strain Swiss, males, i.p., site: any site (literature study), lesion: malignant tumor, dosed 26 weeks, study length 78 weeks) was 8.53 mg/kg/day, the TD50 (mouse, strain Swiss, males, i.p., site: any site (literature study), lesion: several types, types named in the paper, dosed 26 weeks, study length 78 weeks) was 6.03 mg/kg/day and the TD50 (mouse, strain Swiss, males, i.p., site: liver, lesion: several types, types named in the paper, dosed 26 weeks, study length 78 weeks) was 65.7 mg/kg/day. For the same compound, the TD50 (mouse, strain Swiss, males, i.p., site: lung, lesion: several types, types named in the paper, dosed 26 weeks, study length 78 weeks) was 11.4 mg/kg/day, the TD50 (rat, strain Charles River CD (Sprague-Dawley), females, i.p., site: any site (literature study), lesion: malignant tumor, dosed 26 weeks, study length 78 weeks) was 11.5 mg/kg/day and the TD50 (rat, strain Charles River CD (Sprague-Dawley), females, i.p., site: any site (literature study), lesion: several types, types named in the paper, dosed 26 weeks, study length 78 weeks) was 12.5 mg/kg/day. It also gave a TD50 (rat, strain Charles River CD (Sprague-Dawley), females, i.p., site: lung, lesion: carcinoma, dosed 26 weeks, study length 78 weeks) of 84.6 mg/kg/day, a TD50 (rat, strain Charles River CD (Sprague-Dawley), females, i.p., site: mammary gland, lesion: adenocarcinoma, dosed 26 weeks, study length 78 weeks) of 24.9 mg/kg/day and a TD50 (rat, strain Charles River CD (Sprague-Dawley), females, i.p., site: peritoneum, lesion: sarcoma, dosed 26 weeks, study length 78 weeks) of 79.2 mg/kg/day. The TD50 (rat, strain Charles River CD (Sprague-Dawley), males, i.p., site: any site (literature study), lesion: benign tumor, dosed 26 weeks, study length 78 weeks) was 16.6 mg/kg/day, the TD50 (rat, strain Charles River CD (Sprague-Dawley), males, i.p., site: any site (literature study), lesion: several types, types named in the paper, dosed 26 weeks, study length 78 weeks) was 7.95 mg/kg/day and the TD50 (rat, strain Charles River CD (Sprague-Dawley), males, i.p., site: mammary gland, lesion: fibroadenoma, dosed 26 weeks, study length 78 weeks) was 255 mg/kg/day. For the same compound, the TD50 (rat, strain Charles River CD (Sprague-Dawley), males, i.p., site: peritoneum, lesion: sarcoma, dosed 26 weeks, study length 78 weeks) was 30.9 mg/kg/day and the TD50 (rat, strain Charles River CD (Sprague-Dawley), males, i.p., site: skin, lesion: several types, types named in the paper, dosed 26 weeks, study length 78 weeks) was 103 mg/kg/day.

C=CCN(CC=C)N=O gave a TD50 (hamster, strain Syrian Golden, both sexes, by gavage, site: any site (literature study), lesion: several types, types named in the paper, dosed 53 weeks, study length 59 weeks) of 1.54 mg/kg/day, a TD50 (hamster, strain Syrian Golden, both sexes, by gavage, site: larynx, lesion: papillary polyp, dosed 53 weeks, study length 59 weeks) of 3.69 mg/kg/day and a TD50 (hamster, strain Syrian Golden, both sexes, by gavage, site: liver, lesion: cholangioma, dosed 53 weeks, study length 59 weeks) of 743 mg/kg/day. The TD50 (hamster, strain Syrian Golden, both sexes, by gavage, site: nasal cavity, posterior region, lesion: adenocarcinoma, dosed 53 weeks, study length 59 weeks) was 2.86 mg/kg/day, the TD50 (hamster, strain Syrian Golden, both sexes, by gavage, site: pharynx, lesion: papilloma, dosed 53 weeks, study length 59 weeks) was 25.3 mg/kg/day and the TD50 (hamster, strain Syrian Golden, both sexes, by gavage, site: trachea, lesion: papillary polyp, dosed 53 weeks, study length 59 weeks) was 2.84 mg/kg/day. For the same compound, the TD50 (rat, strain BD IX, females, in drinking water, site: nasal and paranasal cavity, lesion: adenocarcinoma, dosed 104 weeks, study length 104 weeks) was 33.6 mg/kg/day, the TD50 (rat, strain BD IX, females, in drinking water, site: nasal and paranasal cavity, lesion: several types, types named in the paper, dosed 104 weeks, study length 104 weeks) was 32.1 mg/kg/day and the TD50 (rat, strain BD IX, males, in drinking water, site: nasal and paranasal cavity, lesion: adenocarcinoma, dosed 104 weeks, study length 104 weeks) was 46.9 mg/kg/day. It also gave a TD50 (rat, strain BD IX, males, in drinking water, site: nasal and paranasal cavity, lesion: several types, types named in the paper, dosed 104 weeks, study length 104 weeks) of 36 mg/kg/day.
